# Laboratory results from patent publication US20220127247A1, “N-(PYRIDIN-2-YL)PYRIDINE-SULFONAMIDE DERIVATIVES AND THEIR USE IN THE TREATMENT OF DISEASE” (NOVARTIS AG, priority 2019, published 2022).
# Target: T1, delF508-CFTR (Homo sapiens, UniProt P13569, DEL508-508)
# T1 construct: expressed in transfected cells
# Test: Measurement of delF508-CFTR-HRP surface expression in CFBE41o- cells
# Type: cell-based
# Conditions: for EC50: HRP-tagged delF508-CFTR in CFBE41o- cells, 24 h with compound, luminescence, 10-point curve, top 10 μM; for Emax: efficacy relative to reference compound 3-(6-(1-(2,2-difluorobenzo[d][1,3]dioxol-5-yl)cyclopropane-1-carboxamido)-3-methylpyridin-2-yl)benzoic acid, CFBE41o- cells, 24 h, read-out: DelF508-CFTR-HRP Amax %
# Source text: Measurement of delF508-CFTR-HRP Surface Expression in CFBE41o-Cells
# This assay quantifies the cell surface expressions of the mutant CFTR channel using an extracellular HRP tag.
# A cellular assay was developed to measure surface expression of horseradish peroxidase (HRP) tagged delF508-CFTR in the human bronchial epithelial immortalized CFBE41o-cell line (Phuan, P. W., et al, (2014) Molecular Pharmacology 86:42-51). Specifically, the HRP sequence was inserted into the fourth extracellular loop of delF508-CFTR and stably expressed in CFBE41o-cells. Cells were seeded in 384 well plate at a density of 5000 cells/well and incubated at 37° C. for 12 to 24 hours in medium (Gibco MEM #11095, 10% FBS, 10 mM HEPES, […], 200 μg/mL G418, 3 μg/mL Puromycin). The delF508-CFTR-HRP expression was induced with 500 ng/mL doxycycline (Sigma D-9891, dissolved in H2O and sterile filtered) in medium and the cells were incubated at 37° C. for 48 h. Old medium was removed and fresh medium was added containing 500 ng/mL doxycycline and unknown test compound at required test concentration in DMSO, not exceeding 0.5% final DMSO concentration. The highest concentration tested was 10 μM with a 10-point concentration response curve using a 3-fold dilution. After addition of compounds, the cells were incubated for 24 h at 37° C. On the final day, cells were washed four times in PBS containing 1 mM MgCl2 and 0.1 mM CaCl2. HRP-Substrate (SuperSignal ELISA Pico, Fisher #37069) 20 μl/well was added and the luminescence signal was determined (Viewlux, Perkin Elmer). Light was emitted upon addition of exogenous HRP-Substrate only when delF508-CFTR-HRP reached the cell surface and the HRP tag was accessible to the HRP-Substrate (note: HRP-Substrate cannot cross the lipid bilayer to reach delF508-CFTR-HRP misfolded within the cell).
# The median activity for the lowest concentration of the compounds on each assay plate was calculated and this value was used to normalize the signal for each well on the respective plate. Three replicates at each concentrations for every compound were run to determine one EC50. The median value was determined and used to calculate compound activities as described below. Effective half maximal values (EC50) were calculated for each compound by performing logistic regression on measured dose-response data points using the equation: […]
# where “Y” is the observed activity, “Bottom” is the lowest observed value, “Top” is the highest observed value, and the “Hill coefficient” gives the largest absolute value of the slope. The curve fitting is carried out by a curve fitting program implemented at GNF using Matlab (Mathworks).
# The dose response curves also were used to calculate Fold Change (FC) using the equation: […]
# Compound efficacy relative to the reference compound 3-(6-(1-(2,2-difluorobenzo[d][1,3]dioxol-5-yl)cyclopropane-1-carboxamido)-3-methylpyridin-2-yl)benzoic acid was determined using the following formula: […]
# T1 sequence (P13569 with tags, fused parts or gaps DEL508-508): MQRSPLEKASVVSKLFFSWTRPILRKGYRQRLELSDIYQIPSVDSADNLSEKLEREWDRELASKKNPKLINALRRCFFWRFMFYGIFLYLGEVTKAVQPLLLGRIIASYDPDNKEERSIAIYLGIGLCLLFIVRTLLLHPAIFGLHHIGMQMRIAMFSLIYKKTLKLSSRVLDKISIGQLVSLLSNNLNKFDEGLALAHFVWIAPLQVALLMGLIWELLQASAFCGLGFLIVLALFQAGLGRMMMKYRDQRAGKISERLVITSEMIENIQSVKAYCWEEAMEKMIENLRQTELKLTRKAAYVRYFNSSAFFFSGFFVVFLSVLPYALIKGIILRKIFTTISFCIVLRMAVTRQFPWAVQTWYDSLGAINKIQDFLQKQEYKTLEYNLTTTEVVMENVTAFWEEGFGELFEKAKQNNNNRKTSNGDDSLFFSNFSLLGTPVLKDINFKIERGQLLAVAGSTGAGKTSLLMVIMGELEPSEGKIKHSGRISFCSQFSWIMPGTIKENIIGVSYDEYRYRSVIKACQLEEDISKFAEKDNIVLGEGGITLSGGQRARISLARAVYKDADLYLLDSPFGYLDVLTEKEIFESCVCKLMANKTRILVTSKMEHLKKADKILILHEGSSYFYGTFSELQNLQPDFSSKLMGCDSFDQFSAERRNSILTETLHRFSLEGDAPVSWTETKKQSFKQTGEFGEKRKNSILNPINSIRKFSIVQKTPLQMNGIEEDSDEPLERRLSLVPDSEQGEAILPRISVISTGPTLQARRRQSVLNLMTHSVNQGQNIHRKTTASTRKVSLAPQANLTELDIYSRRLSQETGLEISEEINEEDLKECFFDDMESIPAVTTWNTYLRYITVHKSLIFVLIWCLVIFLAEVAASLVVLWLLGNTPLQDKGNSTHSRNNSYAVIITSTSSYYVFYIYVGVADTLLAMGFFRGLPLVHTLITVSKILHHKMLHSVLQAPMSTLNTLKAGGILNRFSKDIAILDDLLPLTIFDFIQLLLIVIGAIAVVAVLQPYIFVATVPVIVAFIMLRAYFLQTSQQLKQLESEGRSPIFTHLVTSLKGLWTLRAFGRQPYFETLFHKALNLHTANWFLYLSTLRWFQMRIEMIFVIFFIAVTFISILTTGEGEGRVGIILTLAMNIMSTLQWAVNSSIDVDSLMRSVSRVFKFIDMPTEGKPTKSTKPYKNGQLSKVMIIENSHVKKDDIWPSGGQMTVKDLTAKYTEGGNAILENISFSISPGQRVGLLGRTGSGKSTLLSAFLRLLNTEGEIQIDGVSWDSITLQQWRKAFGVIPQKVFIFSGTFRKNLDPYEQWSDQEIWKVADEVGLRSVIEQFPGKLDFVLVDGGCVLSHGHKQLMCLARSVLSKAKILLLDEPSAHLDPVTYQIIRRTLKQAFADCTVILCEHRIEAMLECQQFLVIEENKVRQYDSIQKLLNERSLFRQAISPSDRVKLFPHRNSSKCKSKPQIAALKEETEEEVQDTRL
SMILES,EC50 [nM],Emax [%]
"CCCCN(CCC(=O)O)c1cccc(S(=O)(=O)Nc2ccc(C(F)(F)F)c(-c3ccccc3C)n2)n1 [Compound 152, 3-(butyl(6-(N-(6-(o-tolyl)-5-(trifluoromethyl)pyridin-2-yl)sulfamoyl)pyridin-2-yl)amino)propanoic Acid]",780,641
"Cc1ccc(F)cc1-c1nc(NS(=O)(=O)c2cccc(N(C)CCC(=O)O)n2)ccc1C(F)(F)F [Compound 48, 3-((6-(N-(6-(5-fluoro-2-methylphenyl)-5-(trifluoromethyl)pyridin-2-yl)sulfamoyl)pyridin-2-yl)(methyl)amino)propanoic Acid]",2040,513
"Cc1ccccc1-c1nc(NS(=O)(=O)c2cccc(N(C)CC3(C(=O)O)CCCC3)n2)ccc1C(F)(F)F [Compound 130, 1-((methyl(6-(N-(6-(o-tolyl)-5-(trifluoromethyl)pyridin-2-yl)sulfamoyl)pyridin-2-yl)amino)methyl)cyclopentane-1-carboxylic Acid]",2060,403
"CCc1ccccc1-c1nc(NS(=O)(=O)c2cccc(N3CCCC(CCC(=O)O)C3)n2)ccc1C(F)(F)F (stereo not shown) [Compound 82, 3-(1-(6-(N-(6-(2-ethylphenyl)-5-(trifluoromethyl)pyridin-2-yl)sulfamoyl)pyridin-2-yl)piperidin-3-yl)propanoic Acid]",1040,
"CCc1ccc(F)cc1-c1nc(NS(=O)(=O)c2cccc(N(CCCCC(=O)O)C(C)C)n2)ccc1C(F)(F)F [Compound 99, 5-((6-(N-(6-(2-ethyl-5-fluorophenyl)-5-(trifluoromethyl)pyridin-2-yl)sulfamoyl)pyridin-2-yl)(isopropyl)amino)pentanoic Acid]",1330,
"CCCCN(CCCC(=O)O)c1cccc(S(=O)(=O)Nc2ccc(Cl)c(-c3cccnc3C(C)C)n2)n1 [Compound 112, 4-(butyl(6-(N-(3-chloro-2′-isopropyl-[2,3′-bipyridin]-6-yl)sulfamoyl)pyridin-2-yl)amino)butanoic Acid]",1570,
"Cc1ccccc1-c1nc(NS(=O)(=O)c2cccc(N3CCC(C(C)(C)C(=O)O)CC3)n2)ccc1C(F)(F)F [Compound 10, 2-methyl-2-(1-(6-(N-(6-(o-tolyl)-5-(trifluoromethyl)pyridin-2-yl)sulfamoyl)pyridin-2-yl)piperidin-4-yl)propanoic Acid]",910,266
"Cc1ccccc1-c1nc(NS(=O)(=O)c2cccc(SCCC(=O)O)n2)ccc1C(F)(F)F [Compound 117, 3-((6-(N-(6-(o-tolyl)-5-(trifluoromethyl)pyridin-2-yl)sulfamoyl)pyridin-2-yl)thio)propanoic Acid]",2430,196
"CC1(C(=O)O)CCN(c2cccc(S(=O)(=O)Nc3ccc(C(F)(F)F)c(-c4ccccc4-c4ccccc4)n3)n2)CC1 [Compound 20, 1-(6-(N-(6-([1,1′-biphenyl]-2-yl)-5-(trifluoromethyl)pyridin-2-yl)sulfamoyl)pyridin-2-yl)-4-methylpiperidine-4-carboxylic Acid]",800,973

# Further compounds by falling EC50, results first:
EC50 [nM],Emax [%],SMILES
3260,257,"O=C(O)CCNc1cccc(S(=O)(=O)Nc2ccc(C(F)(F)F)c(-c3ccccc3C3CC3)n2)n1 [Compound 39, 3-((6-(N-(6-(2-cyclopropylphenyl)-5-(trifluoromethyl)pyridin-2-yl)sulfamoyl)pyridin-2-yl)amino)propanoic Acid]"
2580,722,"Cc1cccc(C)c1-c1nc(NS(=O)(=O)c2cccc(NCCCC(=O)O)n2)ccc1Cl [Compound 3, 4-((6-(N-(5-chloro-6-(2,6-dimethylphenyl)pyridin-2-yl)sulfamoyl)pyridin-2-yl)amino)butanoic Acid]"
2580,785,"Cc1ccccc1-c1nc(NS(=O)(=O)c2cccc(N(C)CCC(=O)O)n2)ccc1C(F)(F)F [Compound 34, 3-(methyl(6-(N-(6-(o-tolyl)-5-(trifluoromethyl)pyridin-2-yl)sulfamoyl)pyridin-2-yl)amino)propanoic Acid]"
2490,,"Cc1ccc(F)cc1-c1nc(NS(=O)(=O)c2cccc(N(CCCCC(=O)O)C(C)C)n2)ccc1C(F)(F)F [Compound 100, 5-((6-(N-(6-(5-fluoro-2-methylphenyl)-5-(trifluoromethyl)pyridin-2-yl)sulfamoyl)pyridin-2-yl)(isopropyl)amino)pentanoic Acid]"
2390,97,"CC1(C(=O)O)CCN(c2cccc(S(=O)(=O)Nc3ccc(C(F)(F)F)c(-c4ccccc4-c4ncccn4)n3)n2)CC1 [Compound 18, 4-methyl-1-(6-(N-(6-(2-(pyrimidin-2-yl)phenyl)-5-(trifluoromethyl)pyridin-2-yl)sulfamoyl)pyridin-2-yl)piperidine-4-carboxylic Acid]"
2390,,"Cc1ccccc1-c1nc(NS(=O)(=O)c2cccc(NC(C(=O)O)C34CC5CC(CC(C5)C3)C4)n2)ccc1C(F)(F)F (stereo not shown) [Compound 143, 2-(adamantan-1-yl)-2-((6-(N-(6-(o-tolyl)-5-(trifluoromethyl)pyridin-2-yl)sulfamoyl)pyridin-2-yl)amino)acetic Acid]"
2250,415,"Cc1ccccc1-c1nc(NS(=O)(=O)c2cccc(NCC3(C(=O)O)CC3)n2)ccc1C(F)(F)F [Compound 11, 1-(((6-(N-(6-(o-tolyl)-5-(trifluoromethyl)pyridin-2-yl)sulfamoyl)pyridin-2-yl)amino)methyl)cyclopropane-1-carboxylic Acid]"
2150,291,"Cc1cccc(C)c1-c1nc(NS(=O)(=O)c2cccc(NCCC(=O)O)n2)ccc1Cl [Compound 1, 3-((6-(N-(5-chloro-6-(2,6-dimethylphenyl)pyridin-2-yl)sulfamoyl)pyridin-2-yl)amino)propanoic Acid]"
2140,443,"CC(C)c1ccccc1-c1nc(NS(=O)(=O)c2cccc(N3CCC(OCC(=O)O)CC3)n2)ccc1C(F)(F)F [Compound 31, 2-((1-(6-(N-(6-(2-isopropylphenyl)-5-(trifluoromethyl)pyridin-2-yl)sulfamoyl)pyridin-2-yl)piperidin-4-yl)nxy)acetic Acid]"
2070,569,Cc1ccccc1-c1nc(NS(=O)(=O)c2cccc(N[C@@H]3[C@H]4CC[C@H](C4)[C@@H]3C(=O)O)n2)ccc1C(F)(F)F (racemic) [108a 108b (racemic mixture)]
1980,463,"Cc1ccc(F)cc1-c1nc(NS(=O)(=O)c2cccc(N(C)CC3(C(=O)O)CCOCC3)n2)ccc1C(F)(F)F [Compound 138, 4-(((6-(N-(6-(5-fluoro-2-methylphenyl)-5-(trifluoromethyl)pyridin-2-yl)sulfamoyl)pyridin-2-yl)(methyl)amino)methyl)tetrahydro-2H-pyran-4-carboxylic Acid]"
1780,,"CCN(CCC(=O)O)c1cccc(S(=O)(=O)Nc2ccc(C(F)(F)F)c(-c3cc(F)ccc3C3CC3)n2)n1 [Compound 111, 3-((6-(N-(6-(2-cyclopropyl-5-fluorophenyl)-5-(trifluoromethyl)pyridin-2-yl)sulfamoyl)pyridin-2-yl)(ethyl)amino)propanoic Acid]"
1280,320,"O=C(O)CC1CCN(c2cccc(S(=O)(=O)Nc3ccc(C(F)(F)F)c(-c4ccccc4C4CC4)n3)n2)C1 (stereo not shown) [Compound 33, 2-(1-(6-(N-(6-(2-cyclopropylphenyl)-5-(trifluoromethyl)pyridin-2-yl)sulfamoyl)pyridin-2-yl)pyrrolidin-3-yl)acetic Acid]"
670,699,"Cc1cccc(C)c1-c1nc(NS(=O)(=O)c2cccc(N(CCCC(=O)O)CC(C)C)n2)ccc1Cl [Compound 155, 4-((6-(N-(5-chloro-6-(2,6-dimethylphenyl)pyridin-2-yl)sulfamoyl)pyridin-2-yl)(isobutyl)amino)butanoic Acid]"
